“And” between values parts separate entries of the source, which are not always exact repeats. Equal entries are not always repeated. Where two headings read alike, the source gives them in different places. One block for each molecule: values may come before it.
Assays:
[1] = tested on: WT TTR cytotoxicity in IMR-32 neuroblastoma cells; assay: Inhibition of WT TTR-induced cytotoxicity, resazurin reduction; conditions: TTR and ligand 8 μM, 24 h
[2] = tested on: V1221 TTR cytotoxicity in AC16 cardiac cells; assay: Inhibition of V1221 TTR-induced cytotoxicity, resazurin reduction; conditions: TTR and ligand 8 μM, 24 h
TTR [3] = biological target: T1, TTR (Homo sapiens (Human), UniProt P02766); assay: Fluorescence polarization displacement of probe 5 from TTR; conditions: probe 5 100 nM, TTR 200 nM
[4] = biological target: human TTR (wild type, from human plasma) (Homo sapiens (Human), UniProt P02766); assay: Isothermal titration calorimetry (ITC) of ligands against TTR; assay type: binding; conditions: 5 versus 4
Protocol: Calorimetric titrations were carried out on a VP-ITC calorimeter (MicroCal, Northhampton, Mass.). […] Prior to each titration, all samples were degassed for 10 minutes. The initial injection of 3.0 μL was followed by 30 injections of 8.0 μL each (25° C.) to the point that TTR was fully saturated with ligand. Integration of the thermogram after subtraction of blanks yielded a binding isotherm that was analyzed with MicroCal Origin 5.0 software.

WT TTR = WT TTR (Homo sapiens (Human), UniProt P02766); assay: Acid-mediated fibril formation (turbidity) assay for TTR amyloidogenesis
[5] = biological target: wild type biotinylated TTR (Homo sapiens (Human), UniProt P02766); assay: Surface plasmon resonance on immobilized biotinylated TTR; assay type: binding; conditions: SPR
Protocol: To an ice-cold solution of TTR (20 μM) in PBS was added EZ-Link Sulfo-NHS-LC-Biotin at a ratio of ˜2:1 (biotin:TTR) (minimal biotinylation) and the solution was incubated at room temperature. After 1 hour, un-reacted biotin was removed by passing the sample over a fast (FPLC) desalting column (Superdex™ 75) equilibrated with PBS.
SPR measurements were performed at 25° C. using a Biacore T100 (GE Healthcare) instrument equilibrated in 1% DMSO in PBS as a running buffer. After pretreatment of the streptavidin-coated chip (Sensor Chop SA, Biacore), ˜4000 RU biotinylated TTR was immobilized on one channel leaving the second flow channel as a blank (streptavidin alone) control. For binding measurements, HTS hits were diluted in running buffer (1% DMSO/PBS) and different dilution series were flowed over the chip at 50 μL/min ([…], 600 s wash). A zero concentration sample was used as a negative control. The kinetic data was fitted to a one-to-one binding model using Biacore T100 evaluation software.

TTR [6] = biological target: T1, TTR; assay: FP saturation binding experiment; conditions: FITC alone
Protocol: The binding of probe 5 for TTR was evaluated as follows. […] The samples were allowed to equilibrate by agitation for 20 min at room temperature. Fluorescence polarization (excitation λ 485 nm, emission λ 525 nm, Cutoff λ 515 nm) measurements were taken using SpectraMax M5 Microplate Reader (Molecular Devices). […] Nonspecific FP, produced by the free fluorescent probe 5 as well as by binding of 5 to the plate, was equal to 70±10 mP.

Molecule: O=[N+]([O-])c1cc(O)c(O)c([N+](=O)[O-])c1 [3,5-dinitrocatechol]
- Prevention of WT TTR-induced cytotoxicity [1]: poor inhibitor
- Prevention of V1221 TTR-induced cytotoxicity [2]: poor inhibitor

- FP Kapp (apparent binding constant) (TTR [3]): 0.231 μM and 0.231 (R^2 = 0.997) μM
Molecule: O=C(O)c1ccc(-c2c(F)cccc2F)cc1 [Compound 1]

- Fold decrease in binding affinity to TTR on attaching FITC to 4 [4]: ~3 fold
Molecule: O=C(O)c1ccccc1Nc1cc(Cl)c(OCCOCCOCCNC(=S)Nc2ccc3c(c2)C(=O)OC32c3ccc(O)cc3Oc3cc(O)ccc32)c(Cl)c1 [Compound 5, 2-(3,5-dichloro-4-(2-(2-(2-(3-(3′,6′-dihydroxy-3-oxo-3H-spiro[isobenzofuran-1,9′-xanthene]-5-yl)thioureido)ethoxy)ethoxy)ethoxy)phenylamino)benzoic acid]

- Inhibition of fibril formation at substoichiometric ligand (WT TTR; ligand 3.0 μM, TTR 3.6 μM, monitored over 5 days): > 75%
Molecule: Cc1n[nH]c(C)c1CCc1nc2c3ccccc3[nH]c(=O)n2n1 [Compound 15]

- target residence time, fold lower than 7 [5]: ~40 ×
- FP Kapp (apparent binding constant) (TTR [3]): 4.66 µM
Molecule: O=C(O)Cc1ccccc1Nc1c(Cl)cccc1Cl [Diclofenac]

Molecule: O=C(O)c1cccnc1Nc1cccc(C(F)(F)F)c1 [Niflumic acid, niflumic acid]
- Prevention of V1221 TTR-induced cytotoxicity [2]: relatively poor inhibitor

Molecule: O=C(c1cc(O)c(O)c([N+](=O)[O-])c1)c1ccccc1F [Ro 41-0960]
- Prevention of WT TTR-induced cytotoxicity [1]: completely prevented TTR-induced cytotoxicity
- Prevention of V1221 TTR-induced cytotoxicity [2]: completely prevented TTR-induced cytotoxicity
- Inhibition of fibril formation at substoichiometric ligand (WT TTR): > 75%

Molecule: fluorescein isothiocyanate [FITC]
- Change in FP signal upon addition of TTR (TTR [6]): no change in the FP signal

Reference: patent publication US10278929B2, “Identification of stabilizers of multimeric proteins” (The Board of Trustees of the Leland Stanford Junior …, priority 2010, dated 2019)
